# Data reported in patent publication US10787456B2 (priority 2018, dated 2020).
# pIC50: −log10 of the molar value. Like-named read-outs stand apart in the source and are kept apart here.
# Key:
# [1] = test system: E. Coli; test: E. coli minimum inhibitory concentration; format: cell-based
# Description: (§1) Further cytotoxicity studies show potential for efficacy as […]. Table 2, below, provides IC50 data relating to both a cancer cell line and E. coli minimum inhibitory concentration (MIC).
# [2] = molecular target: H1 receptor (Homo sapiens, UniProt P35367); test: CNS receptor inhibition, H1 receptor; format: binding
# Chain of H1 receptor (P35367 whole entry): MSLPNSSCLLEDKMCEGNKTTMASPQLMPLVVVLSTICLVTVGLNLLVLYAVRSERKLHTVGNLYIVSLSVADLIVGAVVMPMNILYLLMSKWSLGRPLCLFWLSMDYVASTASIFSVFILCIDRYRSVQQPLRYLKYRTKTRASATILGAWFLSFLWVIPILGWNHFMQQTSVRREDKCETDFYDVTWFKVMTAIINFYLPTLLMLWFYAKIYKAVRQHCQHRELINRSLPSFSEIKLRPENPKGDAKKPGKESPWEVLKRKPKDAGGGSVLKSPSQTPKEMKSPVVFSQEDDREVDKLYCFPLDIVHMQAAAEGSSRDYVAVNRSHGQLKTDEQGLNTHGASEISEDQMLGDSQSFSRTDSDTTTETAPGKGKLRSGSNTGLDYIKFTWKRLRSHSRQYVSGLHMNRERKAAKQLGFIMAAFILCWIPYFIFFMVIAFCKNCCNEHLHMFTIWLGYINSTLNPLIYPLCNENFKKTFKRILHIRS
# Protocol: (§2) In an illustrative embodiment of the present invention, gliotoxin and Formula 1b, were evaluated for activity of various receptors. Turning to Table 1, inhibitory data is provided for various receptors found in the CNS, including H1 and opioid receptors μ (MOR), […], and κ (KOR). Inhibition data is provided as inhibitor constant, Ki, is the concentration required to produce half-maximum inhibition. This quantitative measure indicates how much of a particular drug or other substance (inhibitor) is needed to inhibit a given biological process (or component of a process, i.e. an enzyme, cell, cell receptor or microorganism) by half. The values are typically expressed as molar (micro- and nano-) concentrations.
# [3] = test system: CNS Receptor; test: CNS Receptor binding (profile)
# Protocol: as §2
# [4] = test system: HUVEC cells; test: Angiogenesis study, tube formation in HUVEC; format: cell-based; conditions: 100 nM of drug treatment
# Protocol: Angiogenesis studies were performed using HUVEC cells (see FIGS. 6A-6C). Tube formation in HUVEC in presence of 100 nM of drug treatment.
# [5] = test system: MDA-MB-231; test: Cytotoxicity in cancer cell line MDA-MB-231; format: cell-based
# Description: as §1
# [6] = molecular target: σ (DOR) opioid receptor (Homo sapiens, UniProt P41143); test: CNS receptor inhibition, Delta opioid receptor; format: binding
# Chain of σ (DOR) opioid receptor (P41143 whole entry): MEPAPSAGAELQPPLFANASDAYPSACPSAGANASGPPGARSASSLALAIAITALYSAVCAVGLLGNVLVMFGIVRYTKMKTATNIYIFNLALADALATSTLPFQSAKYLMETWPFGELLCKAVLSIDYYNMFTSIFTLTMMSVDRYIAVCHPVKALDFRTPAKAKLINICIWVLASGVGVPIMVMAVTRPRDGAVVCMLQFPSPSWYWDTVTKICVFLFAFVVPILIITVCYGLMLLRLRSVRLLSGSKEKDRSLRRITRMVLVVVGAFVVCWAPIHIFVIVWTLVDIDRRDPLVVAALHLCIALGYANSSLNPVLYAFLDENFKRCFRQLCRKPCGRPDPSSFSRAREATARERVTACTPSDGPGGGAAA
# Protocol: as §2
# [7] = molecular target: κ (KOR) opioid receptor (Homo sapiens, UniProt P41145); test: CNS receptor inhibition, Kappa opioid receptor; format: binding
# Chain of κ (KOR) opioid receptor (P41145 whole entry): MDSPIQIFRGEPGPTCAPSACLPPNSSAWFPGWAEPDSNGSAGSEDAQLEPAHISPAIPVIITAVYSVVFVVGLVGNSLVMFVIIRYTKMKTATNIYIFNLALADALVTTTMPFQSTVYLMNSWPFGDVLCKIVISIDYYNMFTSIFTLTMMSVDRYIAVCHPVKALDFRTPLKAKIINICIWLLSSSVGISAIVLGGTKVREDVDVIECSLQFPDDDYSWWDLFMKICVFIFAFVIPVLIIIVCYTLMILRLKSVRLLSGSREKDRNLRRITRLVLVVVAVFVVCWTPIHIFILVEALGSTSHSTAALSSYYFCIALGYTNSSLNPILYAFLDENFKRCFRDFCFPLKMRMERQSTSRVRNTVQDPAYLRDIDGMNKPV
# Protocol: as §2
# [8] = molecular target: μ (MOR) opioid receptor (Homo sapiens, UniProt P35372); test: CNS receptor inhibition, Mu opioid receptor; format: binding
# Chain of μ (MOR) opioid receptor (P35372 whole entry): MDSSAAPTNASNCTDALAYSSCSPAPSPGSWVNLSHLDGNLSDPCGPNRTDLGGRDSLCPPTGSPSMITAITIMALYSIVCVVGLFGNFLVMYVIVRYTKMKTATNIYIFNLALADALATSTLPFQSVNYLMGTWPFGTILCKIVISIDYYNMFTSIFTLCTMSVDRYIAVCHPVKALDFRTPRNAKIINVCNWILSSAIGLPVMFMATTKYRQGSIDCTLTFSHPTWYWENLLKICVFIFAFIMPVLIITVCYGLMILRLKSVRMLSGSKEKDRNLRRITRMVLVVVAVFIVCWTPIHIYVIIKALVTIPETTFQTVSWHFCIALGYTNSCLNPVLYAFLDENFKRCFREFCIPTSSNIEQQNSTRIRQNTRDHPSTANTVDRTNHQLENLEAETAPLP
# Protocol: as §2
# [9] = test system: bEnd.3 cells; test: Blood-brain barrier membrane permeability in in-vitro monolayer of bEnd.3 cells; format: in vitro ADME; conditions: in 30 minutes
# Description: FIG. 4 provides permeability data for the blood-brain barrier (BBB) of various compounds, including gliotoxin and Formula 1b. Membrane permeability increases linearly as a function of time.
SMILES,MIC ([1]; Escherichia coli),"CNS activity, inhibition of the H1 receptor (FIG. 7) [2]",Inhibition (%) ([2]; H1),CNS Receptor binding [3],Inhibition of tube formation [4],pIC50 ([5]; Homo sapiens),Inhibition (%) [6],E. Coli MIC [1],Inhibition (%) [7],Inhibition (%) [8],pIC50 [5],ability to cross the BBB [9]
"CN1C(=O)[C@]23CC4=CC=C[C@H](O)[C@H]4N2C(=O)[C@@]1(CO)SS3 [Gliotoxin, reference compound]",32 µg/mL,partial inhibition,61%,H1 Receptor Antagonist,Inhibition of tube formation was observed,5.85,,,,,,
"CCc1cccc2c1N1C(=O)CC(C)C(=O)C1C2 (stereo not drawn) [Formula 1b, 4-ethyl-8-methyl-7,8,9a,10-tetrahydropyrido[1,2-α]indole-6,9-dione]",,,,Opioid Antagonist,no inhibition was observed,,97.4%,Not Active,99.3%,97.8%,< 4.00,80%
